Measurements as given in US12220437B2, “Oncolytic virus improved in safety and anticancer effect” (BIONOXX INC., priority 2017, dated 2025).

How the values were obtained:
A549 cells = test: Annexin V/PI staining, flow cytometry (FACS); assay type: cell-based, human
Protocol: (§1) In addition, the apoptosis and necrosis according to the combined administration of OTS-412 and GCV were confirmed by flow cytometry (FACS). Specifically, A549 and NCI-H460 cell lines were treated with GCV alone, OTS-412 alone, or a combination of OTS-412 and GCV, respectively, and the cells were subjected to Annexin V/PI staining followed by flow cytometry. At this time, the viability of cell was determined based on the facts that: both Annexin V and PI are negative in living cells; Annexin V is positive in the early stage of apoptosis, wherein the permeability of cell membrane changes; and both Annexin V and PI are positive at the end of apoptosis, wherein the nucleus is exposed by destruction of the cell membrane.

NCI-H460 cells = test: Annexin V/PI staining, flow cytometry (FACS); assay type: cell-based, human
Protocol: as §1

Structure (SMILES): Nc1nc2c(ncn2COC(CO)CO)c(=O)[nH]1 [GCV, ganciclovir]
- apoptosis rate (A549 cells): not confirmed
- apoptosis rate (NCI-H460 cells): not confirmed
